In ChEMBL document CHEMBL5724914, “Linking interpersonal differences in gut microbiota composition and drug biotransformation activity” (2024):

Assays:
[1] = (§1) The drug is tested on Z-030 corresponding to mouse gut metagenome with ENA study accession number: PRJEB37062 and ENA sample accession number: ERS12561829 for biotransformation under anaerobic condition. The drug concentrations were measured over 9 timepoints collected between 0 and 24 hours of incubation by liquid-chromatography-coupled mass spectrometry (LC–MS); conditions: 2 µM
[2] = as §1, with “Z-027” for “Z-030”, “to” for “to mouse gut”, “ERS12561826” for “ERS12561829”; conditions: 2 µM
[3] = as §1, with “Z-026” for “Z-030”, “to” for “to mouse gut”, “ERS12561825” for “ERS12561829”; conditions: 2 µM
[4] = as §1, with “Z-025” for “Z-030”, “rabbit” for “mouse”, “ERS12561824” for “ERS12561829”; conditions: 2 µM
[5] = as §1, with “Z-021” for “Z-030”, “to” for “to mouse gut”, “ERS12561820” for “ERS12561829”; conditions: 2 µM
[6] = as §1, with “Z-014” for “Z-030”, “rat” for “mouse”, “ERS12561814” for “ERS12561829”; conditions: 2 µM
[7] = as §1, with “WLS-310” for “Z-030”, “human” for “mouse”, “ERS12561785” for “ERS12561829”; conditions: 2 µM
[8] = as §1, with “WLS-220” for “Z-030”, “human” for “mouse”, “ERS12561769” for “ERS12561829”; conditions: 2 µM
[9] = as §1, with “WLS-086” for “Z-030”, “human” for “mouse”, “ERS12561752” for “ERS12561829”; conditions: 2 µM
[10] = as §1, with “WLS-027” for “Z-030”, “human” for “mouse”, “ERS12561744” for “ERS12561829”; conditions: 2 µM
[11] = as §1, with “WLS-007” for “Z-030”, “human” for “mouse”, “ERS12561742” for “ERS12561829”; conditions: 2 µM
[12] = as §1, with “WLS-006” for “Z-030”, “human” for “mouse”, “ERS12561741” for “ERS12561829”; conditions: 2 µM
[13] = human gut metagenome, 24 h, 2 µM
[14] = human gut metagenome, 24 h, 2 µM; remark: listed apart in the source
[15] = human gut metagenome, 24 h, 2 µM; remark: listed apart in the source
[16] = human gut metagenome, 24 h, 2 µM; remark: listed apart in the source
[17] = human gut metagenome, 24 h, 2 µM; remark: listed apart in the source
[18] = human gut metagenome, 24 h, 2 µM; remark: listed apart in the source
[19] = human gut metagenome, 24 h, 2 µM; remark: listed apart in the source
[20] = human gut metagenome, 24 h, 2 µM; remark: listed apart in the source
Note: call rule not given here.

SMILES	Bacterial Biotransformation [1]	Bacterial Biotransformation [2]	Bacterial Biotransformation [3]	Bacterial Biotransformation [4]	Bacterial Biotransformation [5]	Bacterial Biotransformation [6]	Bacterial Biotransformation [7]	Bacterial Biotransformation [8]	Bacterial Biotransformation [9]	Bacterial Biotransformation [10]	Bacterial Biotransformation [11]	Bacterial Biotransformation [12]	Bacterial Biotransformation [13]	Bacterial Biotransformation [14]	Bacterial Biotransformation [15]	Bacterial Biotransformation [16]	Bacterial Biotransformation [17]	Bacterial Biotransformation [18]	Bacterial Biotransformation [19]	Bacterial Biotransformation [20]
CCN(CC)C(=O)C1(c2ccccc2)CC1CN (stereo unspecified)	Compound NOT metabolized	Compound NOT metabolized	Compound NOT metabolized	Compound NOT metabolized	Compound NOT metabolized	Compound NOT metabolized	Compound NOT metabolized	Compound NOT metabolized	Compound NOT metabolized	Compound NOT metabolized	Compound NOT metabolized	Compound NOT metabolized	Compound NOT metabolized	Compound NOT metabolized	Compound NOT metabolized	Compound NOT metabolized	Compound NOT metabolized	Compound NOT metabolized	Compound NOT metabolized	Compound NOT metabolized
CC(C)C[C@H]1C(=O)N2CCC[C@H]2[C@]2(O)O[C@](NC(=O)[C@@H]3C=C4c5cccc6[nH]c(Br)c(c56)C[C@H]4N(C)C3)(C(C)C)C(=O)N12.CS(=O)(=O)O [BROMOCRIPTINE MESYLATE]	Compound metabolized	Compound metabolized	Compound metabolized	Compound metabolized	Compound metabolized	Compound metabolized	Compound metabolized	Compound metabolized		Compound metabolized	Compound metabolized	Compound metabolized	Compound metabolized				Compound metabolized	Compound metabolized	Compound metabolized	Compound metabolized
CN1CCC[C@@H]1CCO[C@](C)(c1ccccc1)c1ccc(Cl)cc1.O=C(O)/C=C/C(=O)O [CLEMASTINE FUMARATE]	Compound NOT metabolized	Compound NOT metabolized	Compound NOT metabolized	Compound NOT metabolized	Compound NOT metabolized	Compound NOT metabolized	Compound metabolized	Compound NOT metabolized	Compound metabolized	Compound metabolized	Compound NOT metabolized	Compound NOT metabolized	Compound metabolized	Compound NOT metabolized	Compound metabolized	Compound NOT metabolized	Compound NOT metabolized	Compound metabolized	Compound metabolized	
CC(=O)Nc1ccc(OC(C)=O)cc1 [DIACETAMATE]	Compound metabolized	Compound metabolized	Compound metabolized	Compound metabolized	Compound metabolized	Compound metabolized	Compound metabolized	Compound metabolized	Compound metabolized	Compound metabolized	Compound metabolized	Compound metabolized	Compound metabolized	Compound metabolized	Compound metabolized	Compound metabolized	Compound metabolized	Compound metabolized		Compound metabolized
COc1cc2nc(N3CCN(C(=O)C4COc5ccccc5O4)CC3)nc(N)c2cc1OC.CS(=O)(=O)O (stereo unspecified) [DOXAZOSIN MESYLATE]	Compound NOT metabolized	Compound NOT metabolized	Compound metabolized	Compound NOT metabolized	Compound NOT metabolized	Compound NOT metabolized	Compound metabolized	Compound metabolized	Compound metabolized	Compound metabolized	Compound metabolized	Compound metabolized	Compound NOT metabolized	Compound metabolized	Compound metabolized	Compound metabolized	Compound metabolized	Compound metabolized		Compound metabolized
Cc1cc2c(s1)Nc1ccccc1N=C2N1CCN(C)CC1 [OLANZAPINE]	Compound NOT metabolized	Compound NOT metabolized	Compound NOT metabolized	Compound metabolized	Compound NOT metabolized	Compound NOT metabolized	Compound NOT metabolized	Compound NOT metabolized		Compound NOT metabolized	Compound NOT metabolized	Compound NOT metabolized	Compound NOT metabolized	Compound metabolized	Compound metabolized	Compound NOT metabolized	Compound NOT metabolized	Compound metabolized	Compound metabolized	Compound NOT metabolized
CC(=O)O[C@H]1C(=O)[C@@]2(C)[C@H]([C@H](OC(=O)c3ccccc3)[C@]3(O)C[C@H](OC(=O)[C@H](O)[C@@H](NC(=O)c4ccccc4)c4ccccc4)C(C)=C1C3(C)C)[C@]1(OC(C)=O)CO[C@@H]1C[C@@H]2O [PACLITAXEL]	Compound NOT metabolized	Compound NOT metabolized	Compound metabolized	Compound metabolized	Compound NOT metabolized	Compound metabolized	Compound NOT metabolized	Compound NOT metabolized	Compound NOT metabolized	Compound metabolized		Compound metabolized	Compound NOT metabolized	Compound metabolized	Compound NOT metabolized	Compound NOT metabolized	Compound NOT metabolized	Compound NOT metabolized	Compound metabolized	Compound NOT metabolized
